Measured values published in patent publication US8835466B2, “Synthesis and uses of pyroglutamic acid derivatives” (Prodimed, S.A., priority 2006, dated 2014).

Columns and labels:
[1] = test system: Renca cells (renal cell carcinoma); test: Effect of isomers on in vivo tumour growth in mice challenged with Renca cells (Example 7); design: species or system Balb/c mice; conditions: for Tumour surface, overall values (Mean) / Tumour surface, overall values (Median) / Tumour volume, overall values (Mean) / Tumour volume, overall values (Median): 260 ng/mouse i.p. days 6, 7, 14
From the text: This assay was made in order to check the effect of each stereoisomer on in vivo tumour growth in mice challenged with Renca cells. Their effect was compared with placebo. The stereoisomers assayed were:
Renca is a renal cell carcinoma originated in Balb/c mouse strain, and therefore syngeneic in mice with Balb/c genetic background [Melder R J et al., Cancer Immunol. Immunother., 2005, 54:535-547; Felluga B et al., 1969, J. Natl. Cancer Inst. 43:319-333]. Renca is considered a moderate immunogenic tumour and used as suitable model for testing immunointervention approaches [Salup R R, et al., 1992, The Journal of Urology, 147:1120-1123].
(§1) Renca cells (CLS, Eppelheim, Germany) were maintained in vitro by serial passages every 3-4 days. Cultures were performed with RPMI medium medium (RPMI, 10% foetal calf serum, 2 mM L-glutamine, non essential amino acids, 1 mM sodium pyruvate, 20 mM HEPES, 80 μg/mL gentamycin; all of them were purchased from Sigma, St. Louis, Mo., USA) by seeding 5×10^6 cells onto 75 cm^2 culture flasks. Tumour cells collected from 48 hour cultures upon trypsinization (Sigma, St. Louis, Mo., USA) were used as source of Renca cells for the studies described below.
Each isomer was tested at the dose levels of 260 ng administered on days 6, 7 and 14 after tumour inoculation.
The treatments were given by intraperitoneal route (i.p.). The volume inoculated was 0.2 mL/animal. This route was chosen because it is the one described in the original method [Pérez S, et al., 2003, Clinical Cancer Research. 9:5776-5785].
Tumours were established by subcutaneous inoculation in the right hind flank. Mice (Balb/c) were inoculated with 0.2 mL containing 10^5 viable Renca cells. The day of subcutaneous inoculation will be considered Day 0 of the test.
(§2) Mice were observed daily and the tumour size recorded twice a week. This was carried out by measuring two perpendicular diameters (L/W) with a calliper. These measures were used to obtain both tumour surface and volume: Tumour surface=L×W(mm^2) Tumour volume=L×W^2×½(mm^3)
(§3) Results were expressed as single values and/or as the mean±SD or median from each experimental group.
(§4) A case-control study was performed with treated and control mice in order to determine whether differences between isomers and administration of placebo were present. […] The U-test of Mann Withney was chosen for being one of the better known non-parametrical tests, anyway, results for this test are equivalent both to those of Wilcoxon's sum of ranges and Kruskal-Wallis two-groups test.
Due to the high dispersion of data, outlayers (animals beyond percentile 25 or above percentile 75 for tumour surface at day 25) were excluded of the study.

[2] = test system: Ehrlich tumour cells (murine mammary adenocarcinoma); test: Effect of isomers and BLAS on in vivo tumour growth, Ehrlich tumours (Example 9); design: species or system Balb/c mice; conditions: for Tumour surface, overall values (Mean) / Tumour surface, overall values (Median) / Tumour volume, overall values (Mean) / Tumour volume, overall values (Median): 260 ng/mouse i.p. days 6, 7 and 14
From the text: This assay was made in order to compare the effect of each stereoisomer on in vivo tumour growth in mice with the effect of the mixture of all of them challenged with Ehlrich tumours. The same products, equipment, reagents, doses, vehicle and route of administration as in example 8 were used.
Mice were inoculated with Ehrlich tumour cells. It was described as a murine mammary adenocarcinoma. Ehrlich tumour is a murine mammary carcinoma originally raised in an outbred mouse, and therefore it belongs to the so-called non-specific tumours (Subiza J L, Viñuela J E, Rodriguez R, Gil J, Figueredo M A, de la Concha. E G. Development of splenic natural suppressor (NS) cells in Ehrlich tumor bearing mice. Int J Cancer, 44:307 315; 1989). It may grow across histocompatibility barriers and therefore is not mouse strain specific (Carry P J, Prescott D M, Ogilvie G K. Resistance to Ehrlich ascites tumor in a strain of dystrophic mice. Cancer Res., 39:2139-2140; 1979).
as §1, with “Ehrlich” for “Renca”, “cells” for “cells (CLS, Eppelheim, Germany)”, “aminoacids,” for “amino acids,”, “cultures” for “cultures upon trypsinization (Sigma, St. Louis, Mo., USA)”, “of” for “of Renca”
Tumours were established by subcutaneous inoculation in the right hind flank. Mice (Balb/c) were inoculated with 0.2 mL containing 2×10^5 viable Ehrlich cells. The day of subcutaneous inoculation will be considered Day 0 of the test.
as §2, §3
as §4, with “BLAS or each diferent stereoisomer” for “isomers”

[3] = day 11 after tumour inoculation
[4] = day 14 after tumour inoculation
[5] = day 13 after tumour inoculation
[6] = day 16 after tumour inoculation
[7] = day 20 after tumour inoculation
[8] = day 23 after tumour inoculation
[9] = day 29 after tumour inoculation
[10] = day 31 after tumour inoculation
[11] = day 35 after tumour inoculation
[12] = day 38 after tumour inoculation

Br.N[C@]1(C[n+]2ccccc2)C[C@@H](C(=O)O)NC1=O.[Br-] (single isomer, unassigned; isomer 3) [isomer 3, 3S,5S-1-(3-Amino-5-carboxy-2-oxopyrrolidin-3-ylmethyl)pyridinium bromide hidrobromide]
Inhibition of the in vivo growth of the renal cell carcinoma (Renca), in words ([1]; 260 ng i.p. days 6, 7, 14): inhibit the in vivo growth | Tumour surface, overall values (Mean) ([1]; day 0 after tumour inoculation): 0 mm^2 | Tumour surface, overall values (Median) ([1]; day 0 after tumour inoculation): 0 mm^2 | Tumour volume, overall values (Mean) ([1]; day 0 after tumour inoculation): 0 mm^3 | Tumour volume, overall values (Median) ([1]; day 0 after tumour inoculation): 0 mm^3 | Tumour surface, overall values (Mean) [1, 3]: 0.3 mm^2 | Tumour surface, overall values (Median) [1, 3]: 0 mm^2 | Tumour volume, overall values (Median) [1, 3]: 0 mm^3 | Tumour surface, overall values (Median) [1, 4]: 4 mm^2 | Tumour volume, overall values (Median) [1, 4]: 4 mm^3 | Differences in Renca tumour growth rate vs. placebo, statistical significance p (Mann-Whitney U test) ([1]; either in surface or volume, days 18th and 25th of tumour development): < 0.05 | Inhibition of the in vivo growth of Ehrlich tumour cells, in words ([2]; 260 ng i.p. days 6, 7 and 14): inhibit the in vivo growth | Inhibitory effect on Ehrlich tumour growth compared among treatments, in words ([2]; 260 ng i.p. days 6, 7 and 14): highest inhibitory effect | Tumour surface, overall values (Mean) ([2]; day 0 after tumour inoculation): 0 mm^2 | Tumour surface, overall values (Median) ([2]; day 0 after tumour inoculation): 0 mm^2 | Tumour volume, overall values (Mean) ([2]; day 0 after tumour inoculation): 0 mm^3 | Tumour volume, overall values (Median) ([2]; day 0 after tumour inoculation): 0 mm^3 | Tumour surface, overall values (Mean) ([2]; day 8 after tumour inoculation): 3.62 mm^2 | Tumour surface, overall values (Median) ([2]; day 8 after tumour inoculation): 0 mm^2 | Tumour volume, overall values (Mean) ([2]; day 8 after tumour inoculation): 6 mm^3 | Tumour volume, overall values (Median) ([2]; day 8 after tumour inoculation): 0 mm^3 | Tumour surface, overall values (Mean) [2, 5]: 10.94 mm^2 | Tumour surface, overall values (Median) [2, 5]: 9 mm^2 | Tumour volume, overall values (Mean) [2, 5]: 23.53 mm^3 | Tumour volume, overall values (Median) [2, 5]: 13.5 mm^3 | Tumour surface, overall values (Mean) [2, 6]: 16.5 mm^2 | Tumour surface, overall values (Median) [2, 6]: 16 mm^2 | Tumour volume, overall values (Mean) [2, 6]: 37.12 mm^3 | Tumour volume, overall values (Median) [2, 6]: 32 mm^3 | Tumour surface, overall values (Mean) [2, 7]: 24.12 mm^2 | Tumour surface, overall values (Median) [2, 7]: 20 mm^2 | Tumour volume, overall values (Mean) [2, 7]: 65.12 mm^3 | Tumour volume, overall values (Median) [2, 7]: 40 mm^3 | Tumour surface, overall values (Mean) [2, 8]: 32.25 mm^2 | Tumour surface, overall values (Median) [2, 8]: 25 mm^2 | Tumour volume, overall values (Mean) [2, 8]: 100.44 mm^3 | Tumour volume, overall values (Median) [2, 8]: 62.5 mm^3 | Tumour surface, overall values (Mean) [2, 9]: 42.94 mm^2 | Tumour surface, overall values (Median) [2, 9]: 27.5 mm^2 | Tumour volume, overall values (Mean) [2, 9]: 156.34 mm^3 | Tumour volume, overall values (Median) [2, 9]: 68.75 mm^3 | Tumour surface, overall values (Mean) [2, 10]: 53.37 mm^2 | Tumour surface, overall values (Median) [2, 10]: 36 mm^2 | Tumour volume, overall values (Mean) [2, 10]: 213.31 mm^3 | Tumour volume, overall values (Median) [2, 10]: 100.5 mm^3 | Tumour surface, overall values (Mean) [2, 11]: 66 mm^2 | Tumour surface, overall values (Median) [2, 11]: 43 mm^2 | Tumour volume, overall values (Mean) [2, 11]: 293.87 mm^3 | Tumour volume, overall values (Median) [2, 11]: 135.5 mm^3 | Tumour surface, overall values (Mean) [2, 12]: 79.37 mm^2 | Tumour surface, overall values (Median) [2, 12]: 49.5 mm^2 | Tumour volume, overall values (Mean) [2, 12]: 387.69 mm^3 | Tumour volume, overall values (Median) [2, 12]: 164.25 mm^3 | Differences in Ehrlich tumour growth rate vs. placebo, statistical significance p (Mann-Whitney U test) ([2]; either in surface or volume, all days scored after the day 8th): < 0.05 | Differences in Ehrlich tumour growth rate BLAS vs. isomer 3, statistical significance p (Mann-Whitney U test) ([2]; either in surface or volume, days 13th, 16th, 20th and 23th): < 0.05

Br.N[C@@]1(C[n+]2ccccc2)C[C@H](C(=O)O)NC1=O.[Br-] (single isomer, unassigned; isomer 2) [isomer 2, 3R,5R-1-(3-Amino-5-carboxy-2-oxopyrrolidin-3-ylmethyl)pyridinium bromide hidrobromide]
Tumour surface, overall values (Mean) ([1]; day 0 after tumour inoculation): 0 mm^2 | Tumour surface, overall values (Median) ([1]; day 0 after tumour inoculation): 0 mm^2 | Tumour volume, overall values (Mean) ([1]; day 0 after tumour inoculation): 0 mm^3 | Tumour volume, overall values (Median) ([1]; day 0 after tumour inoculation): 0 mm^3 | Tumour surface, overall values (Median) [1, 3]: 0 mm^2 | Tumour volume, overall values (Median) [1, 3]: 0 mm^3 | Tumour surface, overall values (Median) [1, 4]: 9 mm^2 | Inhibition of the in vivo growth of Ehrlich tumour cells, in words ([2]; 260 ng i.p. days 6, 7 and 14): inhibit the in vivo growth | Tumour surface, overall values (Mean) ([2]; day 0 after tumour inoculation): 0 mm^2 | Tumour surface, overall values (Median) ([2]; day 0 after tumour inoculation): 0 mm^2 | Tumour volume, overall values (Mean) ([2]; day 0 after tumour inoculation): 0 mm^3 | Tumour volume, overall values (Median) ([2]; day 0 after tumour inoculation): 0 mm^3 | Tumour surface, overall values (Mean) ([2]; day 8 after tumour inoculation): 6.69 mm^2 | Tumour surface, overall values (Median) ([2]; day 8 after tumour inoculation): 4 mm^2 | Tumour volume, overall values (Mean) ([2]; day 8 after tumour inoculation): 10.97 mm^3 | Tumour volume, overall values (Median) ([2]; day 8 after tumour inoculation): 4 mm^3 | Tumour surface, overall values (Mean) [2, 5]: 14.81 mm^2 | Tumour surface, overall values (Median) [2, 5]: 16 mm^2 | Tumour volume, overall values (Mean) [2, 5]: 32.16 mm^3 | Tumour volume, overall values (Median) [2, 5]: 32 mm^3 | Tumour surface, overall values (Mean) [2, 6]: 20.37 mm^2 | Tumour surface, overall values (Median) [2, 6]: 20 mm^2 | Tumour volume, overall values (Mean) [2, 6]: 51.87 mm^3 | Tumour volume, overall values (Median) [2, 6]: 40 mm^3 | Tumour surface, overall values (Mean) [2, 7]: 28.37 mm^2 | Tumour surface, overall values (Median) [2, 7]: 27.5 mm^2 | Tumour volume, overall values (Mean) [2, 7]: 81.81 mm^3 | Tumour volume, overall values (Median) [2, 7]: 68.75 mm^3 | Tumour surface, overall values (Mean) [2, 8]: 35.75 mm^2 | Tumour surface, overall values (Median) [2, 8]: 33 mm^2 | Tumour volume, overall values (Mean) [2, 8]: 113.75 mm^3 | Tumour volume, overall values (Median) [2, 8]: 91.5 mm^3 | Tumour surface, overall values (Mean) [2, 9]: 46.12 mm^2 | Tumour volume, overall values (Mean) [2, 9]: 167 mm^3 | Tumour surface, overall values (Mean) [2, 10]: 50.06 mm^2 | Tumour surface, overall values (Median) [2, 10]: 45 mm^2 | Tumour volume, overall values (Mean) [2, 10]: 191.91 mm^3 | Tumour volume, overall values (Median) [2, 10]: 135 mm^3 | Tumour surface, overall values (Mean) [2, 11]: 60.25 mm^2 | Tumour surface, overall values (Median) [2, 11]: 51 mm^2 | Tumour volume, overall values (Mean) [2, 11]: 258.06 mm^3 | Tumour volume, overall values (Median) [2, 11]: 153 mm^3 | Tumour surface, overall values (Mean) [2, 12]: 75.37 mm^2 | Tumour surface, overall values (Median) [2, 12]: 71 mm^2 | Tumour volume, overall values (Mean) [2, 12]: 372.5 mm^3 | Tumour volume, overall values (Median) [2, 12]: 266.5 mm^3 | Differences in Ehrlich tumour growth rate vs. placebo, statistical significance p (Mann-Whitney U test) ([2]; either in surface or volume, all days scored after the day 13th): < 0.05
